Patent US11198741B2, “Medicines for topic use based on sulfated hyaluronic acid as activating or inhibiting agent of the cytokine activity” (Fidia Farmaceutici S.p.A., priority 2009, dated 2021)
Where two headings read alike, the source gives them in different places.

Experiments:
[1] = tested on: Vesicular stomatitis virus: VSV; type: cell-based
[2] = tested on: Herpes Simplex Virus-2 (HSV-2: G, 196 and Lyons strain); experiment: Inhibition of viral cytopathogenicity in E6SM fibroblast cells, HSV-2; type: cell-based; conditions: 2nd day of incubation, numbers only in FIG. 10
[3] = tested on: Cytomegalovirus (CMV: AD-169 and Davis strain); experiment: Inhibition of Cytomegalovirus plaque formation in HEL cells; type: cell-based; conditions: numbers only in FIG. 11
Experimental: The activity of the samples tested was determined by evaluating the inhibition of the cytopathogenicity determined by Cytomegalovirus (CMV: AD-169 and Davis strain) using the previous protocol. The antiviral activity was tested vs HEL cells (pulmonary embryonic cells) and was expressed as the concentration required for inhibiting the number of plaques formed by the above virus by 50%.

[4] = tested on: IL-12; experiment: Gene expression of IL-12 in human synoviocytes (PCR Real Time); type: cell-based; conditions: 3 days of treatment, FIG. 2: 0.5 mg/ml, vs control treated with non-sulfated HA 200 KD
Experimental: (§1) Human synoviocytes previously expanded in vitro and maintained in a culture at 37° C. with a medium of DMEM containing 10% of FCS, were seeded at a concentration of 20,000 cells per well (synoviocytes are cells capable of producing various types of cytokines, and are therefore normally used for this type of experimental test). […] After 3 days of treatment, the PCR Real Time was effected to evaluate the gene expression of IL-10 and IL-12: the cell RNA was extracted using the “Trizol” method, following the indications of the supplier (TRIZOL reagent, LIFE Technologies, GIBCO BRL). In short, the cells were lysed by the addition of 1.0 ml of Trizol and the total RNA was quantified by measuring its absorbance at 260 nm. The appropriate primers were selected for each gene to be amplified, using the software Primer3 (Roche Molecular Diagnostics, Pleasanton, Calif., USA). The gene expression was evaluated by means of PCR Real Time effected with a Rotor-gene TM5500 (Corbett research, Sydney, Australia). The PCR reactions were effected using primers at […] and SYBR Green (Invitroge, Carlsbad, Calif., USA) at 40 cycles of 15 s at 95° C., and 1 min. at 60° C. The value of “Fluorescence thresholds (Ct)” was automatically determined by the software, evaluating an amplification coefficient for the genes studied between 92 and 110%. […]

[5] = tested on: TNF receptor; experiment: Inhibition of the binding of 125I-TNF to its receptor in U937 cells (Radioligand Binding); set-up: species or system human; conditions: 125I-TNF 0.028 nM, sample 1 mg/ml, 4° C. 3 hours, medium and low MW
Excerpt: These experiments were effected to evaluate the effectiveness of the samples tested (prepared according to Examples 1-4) on the capacity of inhibiting the binding of TNF to its receptor expressed by cells of the I.S. normally used in vitro for this type of experiment, carried out with iodinated cytokine components for an evaluation in Radioligand Binding assays. The experimental procedure was effected as described in Baglioni C. et al., J Biol Chem, 1985, 260:13395-13397. In short, the line of human histiocytes of the lymphoma U937 was used, with characteristics of monocytes sensitive to the cytotoxic activity of TNF, expressing its relative receptor. […] At the end of the incubation, the cells were centrifuged with dibutylphthalate/dinonylphthalate 2/1 and the pellet obtained was counted in a γ-counter.

[6] = tested on: IL-7; experiment: Protein synthesis of IL-7 in human PBMC (SearchLight array); conditions: not stimulated or stimulated with LPS or PHA (10 μg/ml), 24 hours, FIG. 7: 1 mg/ml, vs HA
Experimental: (§2) For these experimentations, mononucleate cells of human peripheral blood (PBMC) were adopted, deriving from various donors for evaluating the effect of HAS on the production of the cytokines listed above, using:
(§3) The separation of the PBMC (Bøyum A., Scand J Clin Lab Invest 21 Suppl, 1968, 97:77-89) was effected using the product Ficoll-Paque PLUS (GE Healthcare) and following the protocol indicated by the supplier. At day zero 100,000 cells were plated per well (using plates with 96 wells) in 200 μl of medium RPMI 1640, to which 10% of fetal bovine serum, HEPES 10 mM, Glutamine 2 mM, 1% Penicillin-Streptomycin 100 U/ml, had been added. […] The cells were treated separately with the three compounds at a concentration of 0.1 mg/ml or 1 mg/ml. After 24 hours of incubation at 37° C. (5% CO2), 100 μl of supernatant were taken from each well in order to analyze the production of IL-2, IL-7, IL-10 and IL-12.
(§4) The quantification of the inflammation mediators was effected by means of the SearchLight® technology, using a Custom Human 9-flex Array plate following the protocol indicated by the supplier in the technical card.

[7] = tested on: Herpes Simplex Virus-1 (HSV-1: KOS, F and McIntyre strain); experiment: Inhibition of viral cytopathogenicity in E6SM fibroblast cells, HSV-1; type: cell-based; conditions: 2nd day of incubation, numbers only in FIG. 10
[8] = tested on: IL-2; experiment: Protein synthesis of IL-2 in human PBMC (SearchLight array); conditions: not stimulated or stimulated with LPS or PHA (10 μg/ml), 24 hours, FIG. 6: HAS1 0.1 mg/ml, HAS3 1 mg/ml, vs HA
Experimental: as §2, §3, §4

[9] = tested on: IL-10; experiment: Gene expression of IL-10 in human synoviocytes (PCR Real Time); type: cell-based; conditions: 3 days of treatment, FIG. 1: HAS1 0.5 mg/ml, HAS3 0.1 mg/ml, vs control treated with non-sulfated HA 200 KD
Experimental: as §1

[10] = tested on: IL-12; experiment: Protein synthesis of IL-12 in human PBMC (SearchLight array); conditions: not stimulated or stimulated with LPS or PHA (10 μg/ml), 24 hours, FIG. 8: 1 mg/ml, vs HA
Experimental: as §2, §3, §4

[11] = target: T1, fibrin clot (Homo sapiens, UniProt P02671+P02675+P02679); experiment: In vitro fibrinolytic activity: dissolution of fibrin clot in coagulated plasma (absorbance at 405 nm); type: biochemical; conditions: 37° C.
T1 sequence (P02671 20-644 isoform P02671-2 limits assumed): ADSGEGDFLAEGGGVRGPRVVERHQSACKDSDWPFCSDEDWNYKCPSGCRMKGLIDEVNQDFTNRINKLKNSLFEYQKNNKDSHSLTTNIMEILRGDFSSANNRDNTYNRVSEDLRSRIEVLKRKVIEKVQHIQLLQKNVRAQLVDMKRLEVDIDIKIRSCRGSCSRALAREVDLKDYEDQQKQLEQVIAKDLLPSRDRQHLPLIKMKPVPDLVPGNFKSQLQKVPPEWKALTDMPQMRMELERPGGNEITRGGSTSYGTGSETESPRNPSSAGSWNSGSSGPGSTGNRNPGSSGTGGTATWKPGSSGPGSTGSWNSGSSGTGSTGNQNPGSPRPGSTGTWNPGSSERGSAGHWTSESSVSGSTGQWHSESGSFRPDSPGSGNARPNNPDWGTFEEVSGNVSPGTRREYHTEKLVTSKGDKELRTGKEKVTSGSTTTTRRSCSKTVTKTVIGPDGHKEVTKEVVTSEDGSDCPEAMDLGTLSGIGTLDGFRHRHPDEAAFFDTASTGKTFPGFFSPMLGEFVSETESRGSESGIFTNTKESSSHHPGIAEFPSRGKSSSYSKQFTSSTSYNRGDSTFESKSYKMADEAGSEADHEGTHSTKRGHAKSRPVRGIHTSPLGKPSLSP
T1 sequence (P02675 45-491 limits assumed): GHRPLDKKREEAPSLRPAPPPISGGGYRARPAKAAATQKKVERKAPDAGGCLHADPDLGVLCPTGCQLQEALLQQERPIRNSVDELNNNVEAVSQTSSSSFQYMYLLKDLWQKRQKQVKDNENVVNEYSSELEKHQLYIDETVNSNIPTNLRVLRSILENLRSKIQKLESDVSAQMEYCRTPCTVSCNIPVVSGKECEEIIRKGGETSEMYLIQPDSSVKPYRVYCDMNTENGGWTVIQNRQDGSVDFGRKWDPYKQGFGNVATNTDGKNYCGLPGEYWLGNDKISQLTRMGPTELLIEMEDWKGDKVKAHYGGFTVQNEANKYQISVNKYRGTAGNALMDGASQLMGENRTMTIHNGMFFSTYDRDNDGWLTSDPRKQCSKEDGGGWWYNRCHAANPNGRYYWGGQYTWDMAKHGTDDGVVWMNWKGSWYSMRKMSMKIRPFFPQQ
T1 sequence (P02679 27-437 isoform P02679-2 limits assumed): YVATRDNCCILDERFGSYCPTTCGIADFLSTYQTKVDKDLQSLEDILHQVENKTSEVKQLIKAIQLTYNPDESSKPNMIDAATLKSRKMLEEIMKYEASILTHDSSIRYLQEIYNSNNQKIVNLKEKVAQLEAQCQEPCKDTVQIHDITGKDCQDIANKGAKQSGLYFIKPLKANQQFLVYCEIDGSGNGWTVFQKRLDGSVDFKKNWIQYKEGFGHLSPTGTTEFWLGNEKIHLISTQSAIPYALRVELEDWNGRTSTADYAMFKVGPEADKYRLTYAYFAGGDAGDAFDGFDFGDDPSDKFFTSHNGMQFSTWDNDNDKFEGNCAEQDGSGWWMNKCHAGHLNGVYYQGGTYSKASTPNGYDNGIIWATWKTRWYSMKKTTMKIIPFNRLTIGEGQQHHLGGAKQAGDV
Experimental: The evaluation of the fibrinolytic properties of the products subjected to the test was compared with the acknowledged fibrinolytic activity of the plasmin. In particular, the dissolution rate of the fibrin network and formation of soluble products of the fibrin degradation (FDP), was evaluated.
In order to test the fibrinolytic effectiveness of the products subjected to testing, the blood samples were distributed in various test-tubes in which the clot formation was induced.
The formation of FDP was then evaluated after the addition of:
The freshly removed blood samples were distributed in various test-tubes containing sodium citrate in a ratio of 9:1. The test-tubes were immediately centrifuged at 3,000 rpm for 5 minutes. The plasma obtained was transferred to a new test-tube and immediately used for effecting the FDP evaluation.
Thrombin (300 mU/ml), preheated to 37° C. was added to the plasma samples, as activator of the fibrinogen in inducing the formation of the clot.
The following were added to the different cuvettes containing the fibrin clot:
a plasmin solution 0.5 mU, 5 mU, 50 mU, 500 mU and 1 U
solutions of HAS3 at concentrations of 25 mg/ml, 50 mg/ml, 100 mg/ml, 150 mg/ml and 200 mg/ml.
The absorbance variation at 405 nm for 60 sec. was evaluated spectrophotometrically for each cuvette. The reaction was left to proceed until the complete dissolution of the clot.
Coagulated plasma, plasmin solution and a solution of HAS3 200 KD and HAS3 20 KD were mixed in a ratio of 1:1 v/v and maintained at an operating temperature of 37° C.

For `Nc1nc2c(ncn2COCCO)c(=O)[nH]1` [acyclovir, Acyclovir, reference compound], the “antiviral activity (inhibition of the cytopathogenicity of the virus) vs VSV” value ([1]; E6SM cells, 2nd day of incubation, numbers only in FIG. 10) was “inactive”.

“sulfated hyaluronic acid degree 1 [HAS1]” was tested, and the “antiviral activity (inhibition of the cytopathogenicity of the virus) vs HSV-2” value [2] was “powerful antiviral action”, the “antiviral activity vs Cytomegalovirus (inhibition of the number of plaques)” value [3] was “clear and significant positive result” and the “antiviral activity (inhibition of the cytopathogenicity of the virus) vs VSV” value [1] was “very powerful antiviral activity”. The “gene expression of IL-12 (synthesis of its mRNA)” value [4] was “halving the synthesis of its mRNA”, the “inhibition of the binding of TNF to its receptor” value [5] was 100% and the “synthesis of IL-7” value [6] was “significantly reducing”. The “antiviral activity (inhibition of the cytopathogenicity of the virus) vs HSV-1” value [7] was “powerful antiviral action”, the “synthesis of IL-2” value [8] was “significantly reducing” and the “gene expression of the cytokine IL-10” value [9] was “significant increase”. The “synthesis of IL-12” value [10] was “significantly reducing”.

B1: PLASMIN: enzyme of the group of hydrolases degrading fibrin; control treatment of acknowledged fibrinolytic activity (protein, UniProt P00747 20-580; P00747 581-810, looked up)
Plasmin heavy chain A: EPLDDYVNTQGASLFSVTKKQLGAGSIEECAAKCEEDEEFTCRAFQYHSKEQQCVIMAENRKSSIIIRMRDVVLFEKKVYLSECKTGNGKNYRGTMSKTKNGITCQKWSSTSPHRPRFSPATHPSEGLEENYCRNPDNDPQGPWCYTTDPEKRYDYCDILECEEECMHCSGENYDGKISKTMSGLECQAWDSQSPHAHGYIPSKFPNKNLKKNYCRNPDRELRPWCFTTDPNKRWELCDIPRCTTPPPSSGPTYQCLKGTGENYRGNVAVTVSGHTCQHWSAQTPHTHNRTPENFPCKNLDENYCRNPDGKRAPWCHTTNSQVRWEYCKIPSCDSSPVSTEQLAPTAPPELTPVVQDCYHGDGQSYRGTSSTTTTGKKCQSWSSMTPHRHQKTPENYPNAGLTMNYCRNPDADKGPWCFTTDPSVRWEYCNLKKCSGTEASVVAPPPVVLLPDVETPSEEDCMFGNGKGYRGKRATTVTGTPCQDWAAQEPHRHSIFTPETNPRAGLEKNYCRNPDGDVGGPWCYTTNPRKLYDYCDVPQCAAPSFDCGKPQVEPKKCPGR
Plasmin light chain B: VVGGCVAHPHSWPWQVSLRTRFGMHFCGGTLISPEWVLTAAHCLEKSPRPSSYKVILGAHQEVNLEPHVQEIEVSRLFLEPTRKDIALLKLSSPAVITDKVIPACLPSPNYVVADRTECFITGWGETQGTFGAGLLKEAQLPVIENKVCNRYEFLNGRVQSTELCAGHLAGGTDSCQGDSGGPLVCFEKDKYILQGVTSWGLGCARPNKPGVYVRVSRFVTWIEGVMRNN
modifications: Plasmin
In the case of B1, the “fibrinolytic activity (mAbs/min)” value ([11]; plasmin 0.5 mU) is reported as 1 mAbs/min, the “fibrinolytic activity (mAbs/min)” value ([11]; plasmin 1 U) is reported as 190 mAbs/min and the “fibrinolytic activity (mAbs/min)” value ([11]; plasmin 5 mU) is reported as 68 mAbs/min. The “fibrinolytic activity (mAbs/min)” value ([11]; plasmin 50 mU) was 126 mAbs/min and the “fibrinolytic activity (mAbs/min)” value ([11]; plasmin 500 mU) was 178 mAbs/min.
